# Measurements as given in patent publication US8629256B2, “Genetically encoded calcium indicator polypeptides and nucleic acids encoding same” (Howard Hughes Medical Institute, priority 2009, dated 2014).
# Assays:
# histamine 1 receptor H1R = target: T1, histamine 1 receptor H1R (Homo sapiens, UniProt P35367); assay: H1R calcium flux fluorescence assay with GCaMP3 or small molecule dye kits; format: cell-based; conditions: HEK293 and HeLa cells
# T1 construct: The H1R was cloned into the pCAG mammalian expression vector; expressed in transfected cells; host or cells: HEK293 and HeLa cells, transfected with pCAG-H1R (with pCAG-GCaMP3 or loaded with a dye kit)
# Description: The nucleic acid sequence was cloned into a mammalian expression vector driving from the CAG promoter (pCAG).
# The H1R was cloned into the pCAG mammalian expression vector. […] In parallel, HEK293 cells were transfected with pCAG-H1R and incubated with either of the two best-performing small molecule dye calcium kits (the BD Calcium Kit from BD Biosciences and the FLIPR Calcium-5 Kit from Molecular Devices). […] Biophys.
# HEK293 cells = assay: Baseline fluorescence (brightness) of GCaMP-transfected HEK293 cells; format: cell-based, human; conditions: 10 μM proteasome inhibitor
# Description: FIGS. 1A-1E show the in vitro characterization of GCaMP3. […] FIG. 1B is a schematic representation of GCaMP2 and GCaMP3. Mutated residues are shown below GCaMP3. FIG. 1C is a graph of the fluorescence spectra of GCaMP3 and GCaMP2 (1 μM protein) with 1 mM Ca^2+ or 10 mM EGTA in MOPS buffer (30 mM MOPS, 100 mM KCl, pH 7.5) (average of three independent measurements). The fluorescence intensity of each indicator was normalized to the peak of the calcium-saturated spectrum. […] FIG. 1D is a graph of the Ca^2+ titration curve (1 μM protein) in MOPS buffer. […] FIG. 1E is images (left) and a graph (right) showing the improved baseline fluorescence of GCaMP3 compared to GCaMP2. Both indicators were either transfected to HEK293 cells or virally delivered to layer 2/3 cortical neurons. Images were taken either 48 hours post-transfection or 12 days post-viral injection, then analyzed with VOLOCITY® 5.0 (Improvision Imaging Processing & Vision Co., Coventry, England). 50 μm scale bar. […]
# GCaMPs in pCMV were transfected into HEK293 cells using Lipofectamine 2000 (Invitrogen, Carlsbad, Calif.), and imaging experiments were performed 48 hours post transfection. 293 cells transfected with GCaMPs in 96-well plate were imaged on an FDSS plate reader (Hamamatsu, Japan). Acetylcholine (Ach) was automatically added 10 seconds after read initiation. Brightness was quantified using VOLOCITY® 5.0 (Improvision).
# T1 sequence (P35367 with tags, fused parts or gaps): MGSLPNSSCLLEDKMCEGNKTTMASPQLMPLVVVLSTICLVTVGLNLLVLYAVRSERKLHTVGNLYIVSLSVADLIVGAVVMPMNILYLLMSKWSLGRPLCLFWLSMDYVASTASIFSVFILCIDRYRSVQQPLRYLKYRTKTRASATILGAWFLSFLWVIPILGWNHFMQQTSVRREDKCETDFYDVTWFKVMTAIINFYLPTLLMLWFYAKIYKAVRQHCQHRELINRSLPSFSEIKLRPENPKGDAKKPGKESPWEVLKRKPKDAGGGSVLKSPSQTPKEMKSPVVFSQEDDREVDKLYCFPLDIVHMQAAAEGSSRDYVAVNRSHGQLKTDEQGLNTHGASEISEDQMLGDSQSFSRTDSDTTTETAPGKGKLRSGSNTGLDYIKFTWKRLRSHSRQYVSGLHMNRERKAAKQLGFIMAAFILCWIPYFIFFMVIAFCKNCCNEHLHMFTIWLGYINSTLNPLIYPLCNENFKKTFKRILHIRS
"response-to-baseline ratio (histamine 1 receptor H1R; 10 nM histamine plus antagonist, all detection methods)","inhibition of the H1R receptor (histamine 1 receptor H1R; 10 nM histamine, GCaMP3 and both dye kits)",Compound,effect on baseline fluorescence of HEK293 cells expressing GCaMP2 (HEK293 cells)
~1.0,near complete inhibition,O=C(O)COCCN1CCN(C(c2ccccc2)c2ccc(Cl)cc2)CC1 (stereo not drawn) [cetirizine],
,,CC(=O)N[C@@H](CSC(=O)[C@]1([C@@H](O)C(C)C)NC(=O)[C@H](C)[C@@H]1O)C(=O)O [lactacystin],increased the baseline fluorescence
